Patent US12364689B2, “Dosage regimen for the treatment of cancer” (AstraZeneca AB, priority 2020, dated 2025)

What was measured:
[1] = Phase 1 clinical trial: pharmacokinetics of AZD9833 in plasma; assay type: in vivo, human
From the text: The “median terminal half-life” is the median time for a patient's drug blood plasma concentration to halve after reaching pseudo-equilibrium.
Pharmacokinetics: The characterisation of the pharmacokinetics of single and multiple doses of AZD9833 is a secondary objective of this study. Any residual sample remaining after PK analysis has been performed may be used to identify, characterise, and establish the concentration of AZD9833 metabolites and drug-related products in plasma, and/or to conduct exploratory biomarker research. Analysis of AZD9833 in plasma and urine will be performed using appropriate bioanalytical methods. Full details of the analytical methods used will be described in separate bioanalytical reports.
All samples within the known stability of the analytes of interest at the time of receipt by the bioanalytical laboratory will be analysed. In addition, the PK samples may be subjected to further analyses to identify, characterise, and establish the concentration of metabolites in plasma. Any results from such analyses will be reported separately from the clinical study report. Incurred sample reproducibility analysis, if any, will be performed with the bioanalysis of the test samples. The results from the evaluation will not be reported in the clinical study report but, separately, in a bioanalytical report. […]

[2] = tested on: ER positive, HER2 negative advanced breast cancer; test: Phase 1 dose-escalation and expansion clinical trial: anti-tumour activity by RECIST 1.1; assay type: in vivo, human; conditions: for ORR (%) objective response rate: responders/evaluable (percent)
From the text: “Objective response rate” is the percentage of patients with measurable disease at baseline and who have a date of first dose of >17 weeks or a date of post-treatment scan of >15 weeks that indicates a confirmed response as measured by the RECIST criteria. “Clinical benefit rate” is the percentage of patients who have a date of first dose of ≥25 weeks or a date of post-treatment scan of >23 weeks that indicates a confirmed response or stable disease as measured by the RECIST criteria for >23 weeks post treatment. Introduction: To determine the optimal dosing regimen for AZD9833 Phase 1 dose-escalation and expansion in patients with ER positive, HER2 negative advanced breast cancer was carried out according to the following basic protocol. Overall Design: This is a multicentre dose escalation and expansion, first-in-human study designed to evaluate the safety and tolerability of AZD9833 alone (Parts A and B) in women with endocrine-resistant ER+HER2-breast cancer that is not amenable to treatment with curative intent. Efficacy Assessment: Anti-tumour activity will be evaluated using RECIST 1.1 by investigator assessments. Baseline tumour assessments should encompass all areas of known predilection for metastases in the disease under evaluation and should additionally investigate areas that may be involved based on signs and symptoms of individual subjects. Baseline assessments should be performed no more than 28 days before the start of AZD9833, ideally, as close as possible to the start of AZD9833. The methods of assessment used at baseline should be used at each subsequent assessment during treatment and follow-up part of the study. Any other sites at which new disease is suspected should also be appropriately imaged. If an unscheduled assessment is performed and the subject has not progressed, every attempt should be made to perform subsequent assessments at the scheduled visits while the subject remains on AZD9833 or until they have progressed. Categorisation of objective tumour response assessment will be based on the RECIST 1.1 guidelines for response: complete response (CR), partial response (PR), stable disease (SD), and progression of disease (PD). For subjects who only have non-measurable disease at baseline, categorisation of objective tumour response assessment will be based on the RECIST 1.1 guidelines for response for non-target lesions (NTLs): CR, PD, and non-CR/non PD. If the investigator is unsure whether progression has occurred, particularly with response to NTLs or the appearance of a new lesion, it is advisable to continue AZD9833 and reassess the subject's status at the next scheduled assessment, or sooner if clinically indicated. To achieve ‘unequivocal progression’ on the basis of non-target disease, there must be an overall level of substantial worsening in non-target disease such that, even in presence of SD or PR in the target disease, the overall tumour burden has increased sufficiently to merit discontinuation of therapy. A modest increase in the size of one or more NTLs is usually not sufficient to qualify for unequivocal disease progression status. A clinical trial according to the above protocol was carried out using 60 patients.

AZD9833 exposure versus dose ([1]; after multiple doses): dose proportional | half-life ([1]; human, plasma, patients, oral QD dosing, across five doses, read-out: median terminal t1/2 (converted)): 12 h
Structure (SMILES): C[C@@H]1Cc2c(ccc3[nH]ncc23)[C@@H](c2ccc(NC3CN(CCCF)C3)cn2)N1CC(F)(F)F [AZD9833, N-(1-(3-fluoropropyl)azetidin-3-yl)-6-((6S,8R)-8-methyl-7-(2,2,2-trifluoroethyl)-6,7,8,9-tetrahydro-3H-pyrazolo[4,3-f]isoquinolin-6-yl) pyridin-3-amine]
CBR (%) clinical benefit rate at 24 weeks ([2]; 25 mg QD oral (n = 12)): 4/12 (33.3) % | ORR (%) objective response rate ([2]; 25 mg QD oral (n = 12)): 1/9 (11.1) % | CBR (%) clinical benefit rate at 24 weeks ([2]; 75 mg QD oral (n = 12)): 8/12 (66.7) % | ORR (%) objective response rate ([2]; 75 mg QD oral (n = 12)): 1/7 (14.3) % | CBR (%) clinical benefit rate at 24 weeks ([2]; 150 mg QD oral (n = 13)): 4/13 (30.8) % | ORR (%) objective response rate ([2]; 150 mg QD oral (n = 13)): 2/11 (18.2) % | CBR (%) clinical benefit rate at 24 weeks ([2]; 300 mg QD oral (n = 13)): 3/11 (27.3) % | ORR (%) objective response rate ([2]; 300 mg QD oral (n = 13)): 2/10 (20.0) % | CBR (%) clinical benefit rate at 24 weeks ([2]; 450 mg QD oral (n = 10)): 3/4 (75.0) % | ORR (%) objective response rate ([2]; 450 mg QD oral (n = 10)): 1/6 (16.7) % | CBR (%) clinical benefit rate at 24 weeks ([2]; Total, all doses (n = 60)): 22/52 (42.3) % | ORR (%) objective response rate ([2]; Total, all doses (n = 60)): 7/43 (16.3) % | Evidence of clinical benefit and target engagement ([2]; women with ER+ ABC, incl. pre-treated with CDK4/6 inhibitors and fulvestrant, and ESR1 mutations): observed at all dose levels
